# According to ChEMBL document CHEMBL1151638, “Hippamine, a Minor Alkaloid From Sternbergia lutea” (1984):
# System: Solanum tuberosum
# Experiment: Inhibition of ascorbic acid biosynthesis in potato tuber at 20 uM
# Assay type: functional
row,Structure (SMILES),inhibition at 20 µM
1,CO[C@H]1C=C2CCN3Cc4cc5c(cc4[C@H]([C@@H]1O)[C@@H]23)OCO5 [HIPPPAMINE],58%
2,O[C@H]1[C@H]2c3cc4c(cc3CN3CCC(=C[C@@H]1O)[C@H]23)OCO4 [LYCORINE],80%
